“And” between values parts separate entries of the source, which are not always exact repeats. Equal entries are not always repeated. Toxic doses and inconclusive results are not listed. Rule for the calls: active = survival T/C of 150% or more; inactive = T/C below 125% in these data.
System: P388 leukemia ip, CD2F1 mice, survival T/C
Assay: NCI In Vivo Anticancer Drug Screen. Data for tumor model P388 Leukemia (intraperitoneal) in CD2F1 (CDF1) mice
Settings: endpoint: median survival time, higher = longer survival
Procedure, shortened: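 Mice carrying the transplanted tumor received test compound or vehicle. Survival was recorded in each group, and the value is the treated-group measurement divided by that of the vehicle-treated control group.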

[1] = dose: 25.0 mg/kg/injection, schedule: Q01DX009 (ip), vehicle: other
[2] = dose: 50.0 mg/kg/injection, schedule: Q01DX009 (ip), vehicle: other
[3] = dose: 50.0 mg/kg/injection, schedule: Q01DX005 (ip), vehicle: Klucel (hydroxypropylcellulose) (HPC)
[4] = dose: 100.0 mg/kg/injection, schedule: Q01DX005 (ip), vehicle: Klucel (hydroxypropylcellulose) (HPC)
[5] = dose: 200.0 mg/kg/injection, schedule: Q01DX005 (ip), vehicle: Klucel (hydroxypropylcellulose) (HPC)
[6] = dose: 50.0 mg/kg/injection, schedule: Q01DX005 (ip), vehicle: saline with Tween-80
[7] = dose: 100.0 mg/kg/injection, schedule: Q01DX005 (ip), vehicle: saline with Tween-80
[8] = dose: 25.0 mg/kg/injection, schedule: Q01DX009 (ip), vehicle: saline with Tween-80
[9] = dose: 50.0 mg/kg/injection, schedule: Q01DX009 (ip), vehicle: saline with Tween-80
[10] = dose: 100.0 mg/kg/injection, schedule: Q01DX009 (ip), vehicle: saline with Tween-80
[11] = dose: 200.0 mg/kg/injection, schedule: Q01DX009 (ip), vehicle: saline with Tween-80
[12] = dose: 50.0 mg/kg/injection, schedule: Q01DX009 (ip), vehicle: Klucel (hydroxypropylcellulose) (HPC)
[13] = dose: 60.0 mg/kg/injection, schedule: Q01DX005 (ip), vehicle: saline with Tween-80
[14] = dose: 120.0 mg/kg/injection, schedule: Q01DX005 (ip), vehicle: saline with Tween-80
[15] = dose: 240.0 mg/kg/injection, schedule: Q01DX005 (ip), vehicle: saline with Tween-80

Measured: T/C

CCOC(=O)C(NC(C)=O)(C(=O)OCC)c1ccc([N+](=O)[O-])cn1
inactive: [1] 92 % of control | [2] 90 % of control | dose: 100.0 mg/kg/injection, schedule: Q01DX009 (ip), vehicle: other 95 % of control | dose: 200.0 mg/kg/injection, schedule: Q01DX009 (ip), vehicle: other 95 % of control | dose: 400.0 mg/kg/injection, schedule: Q01DX009 (ip), vehicle: other 102 % of control

c1ccc2c(c1)C1OC2c2ccccc21
inactive: [3] 99 % of control | [4] 108 % of control | [5] 100 % of control

COC1OC(CNCCO)C2OC(C)(C)OC12 (centres undefined)
inactive: dose: 50.0 mg/kg/injection, schedule: Q01DX005 (ip), vehicle: saline + alcohol 100 % of control | dose: 100.0 mg/kg/injection, schedule: Q01DX005 (ip), vehicle: saline + alcohol 100 % of control | dose: 200.0 mg/kg/injection, schedule: Q01DX005 (ip), vehicle: saline + alcohol 100 % of control

CC1(C)CCC[C@]2(C)[C@@H](C=O)C(C=O)=CC[C@@H]12
inactive: dose: 3.12 mg/kg/injection, schedule: Q01DX005 (ip), vehicle: Klucel (hydroxypropylcellulose) (HPC) 102 % of control | dose: 6.25 mg/kg/injection, schedule: Q01DX005 (ip), vehicle: Klucel (hydroxypropylcellulose) (HPC) 103 % of control | dose: 12.5 mg/kg/injection, schedule: Q01DX005 (ip), vehicle: Klucel (hydroxypropylcellulose) (HPC) 106 % of control

O=[N+]([O-])c1ccc(O)c(/C=N\NS(=O)(=O)c2ccc(Cl)cc2)c1
inactive: [6] 108 % of control | [7] 100 % of control

CCN(CC)CCNC1=CC(=S)NC(C)(C)C1
inactive: [8] 103 % of control | [9] 94 % of control | [10] 106 % of control | [11] 94 % of control

[O-]/[N+](=N/O)C(c1ccccc1)c1ccccc1
inactive: dose: 3.0 mg/kg/injection, schedule: Q01DX005 (ip), vehicle: Klucel + Tween-80 104 % of control | dose: 6.0 mg/kg/injection, schedule: Q01DX005 (ip), vehicle: Klucel + Tween-80 98 % of control | dose: 12.0 mg/kg/injection, schedule: Q01DX005 (ip), vehicle: Klucel + Tween-80 100 % of control | dose: 24.0 mg/kg/injection, schedule: Q01DX005 (ip), vehicle: Klucel + Tween-80 97 % of control

CC(=O)N1C(=O)Cc2ccccc21
inactive: dose: 100.0 mg/kg/injection, schedule: Q01DX001 (ip), vehicle: Klucel (hydroxypropylcellulose) (HPC) 94 % of control | dose: 200.0 mg/kg/injection, schedule: Q01DX001 (ip), vehicle: Klucel (hydroxypropylcellulose) (HPC) 90 % of control | dose: 400.0 mg/kg/injection, schedule: Q01DX001 (ip), vehicle: Klucel (hydroxypropylcellulose) (HPC) 91 % of control

O=C(O)C1CC(c2ccccc2)=NN1c1ccccc1 (centres undefined)
inactive: dose: 12.5 mg/kg/injection, schedule: Q01DX009 (ip), vehicle: water 99 % of control | dose: 25.0 mg/kg/injection, schedule: Q01DX009 (ip), vehicle: water 98 % of control | dose: 50.0 mg/kg/injection, schedule: Q01DX009 (ip), vehicle: water 103 % of control | dose: 88.0 mg/kg/injection, schedule: Q01DX009 (ip), vehicle: water 112 % of control and 120 % of control | dose: 100.0 mg/kg/injection, schedule: Q01DX009 (ip), vehicle: water 109 % of control | dose: 133.0 mg/kg/injection, schedule: Q01DX009 (ip), vehicle: water 119 % of control and 124 % of control | dose: 200.0 mg/kg/injection, schedule: Q01DX009 (ip), vehicle: water 123 % of control | dose: 300.0 mg/kg/injection, schedule: Q01DX009 (ip), vehicle: water 122 % of control

O=Cc1cc(/C(N=Nc2ccccc2C(=O)O)=N/Nc2ccccc2C(=O)O)nc2[nH]c(=O)ccc12
inactive: [3] 95 % of control | [4] 100 % of control

COC(=O)c1nc(=S)[nH]c(C(=O)OC)c1C(=O)c1c(C)[nH]c2ccccc12
inactive: dose: 60.0 mg/kg/injection, schedule: Q01DX005 (ip), vehicle: Klucel (hydroxypropylcellulose) (HPC) 98 % of control | dose: 120.0 mg/kg/injection, schedule: Q01DX005 (ip), vehicle: Klucel (hydroxypropylcellulose) (HPC) 96 % of control | dose: 240.0 mg/kg/injection, schedule: Q01DX005 (ip), vehicle: Klucel (hydroxypropylcellulose) (HPC) 95 % of control

CSc1nc(Cl)cc(Sc2nc(N)nc3nc[nH]c23)n1
inactive: dose: 12.5 mg/kg/injection, schedule: Q01DX009 (ip), vehicle: Klucel (hydroxypropylcellulose) (HPC) 98 % of control | dose: 25.0 mg/kg/injection, schedule: Q01DX009 (ip), vehicle: Klucel (hydroxypropylcellulose) (HPC) 101 % of control and 107 % of control | [12] 123 % of control and 124 % of control

CC(C)C(NC(=O)OCc1ccccc1)C(=O)N(C(=O)NC1CCCCC1)C1CCCCC1 (centres undefined)
inactive: [3] 100 % of control | [4] 95 % of control | [5] 98 % of control

O=NN(CCCl)C(=O)N1CCCOC1=O
inactive: dose: 12.5 mg/kg/injection, schedule: Q01DX001 (ip), vehicle: saline with Tween-80 115 % of control and 121 % of control | dose: 25.0 mg/kg/injection, schedule: Q01DX001 (ip), vehicle: saline with Tween-80 116 % of control

O=c1c2ccccc2n(-c2ccccc2)c2ccccc12
inactive: [3] 100 % of control | [4] 100 % of control | [5] 99 % of control

CC(=O)NC(Cc1ccsc1)C(=O)O (centres undefined)
inactive: dose: 50.0 mg/kg/injection, schedule: Q01DX009 (ip), vehicle: saline 108 % of control | dose: 100.0 mg/kg/injection, schedule: Q01DX009 (ip), vehicle: saline 92 % of control | dose: 200.0 mg/kg/injection, schedule: Q01DX009 (ip), vehicle: saline 99 % of control

Nc1nc(N)nc(NCCSSCCNc2nc(N)nc(N)n2)n1
inactive: dose: 12.5 mg/kg/injection, schedule: Q01DX009 (ip), vehicle: other 97 % of control | [1] 102 % of control | [2] 104 % of control and 86 % of control

CCSC1(SCC)C(=O)OC2=C(CCCCC2)C1N(C)c1ccccc1 (centres undefined)
inactive: dose: 12.5 mg/kg/injection, schedule: Q01DX009 (ip), vehicle: saline with Tween-80 93 % of control | [8] 99 % of control | [9] 99 % of control

CSc1ccc2ns[s+]c2c1
inactive: [6] 104 % of control | [7] 102 % of control | dose: 200.0 mg/kg/injection, schedule: Q01DX005 (ip), vehicle: saline with Tween-80 101 % of control

O=S(=O)(O)c1cnc2nccn2c1
inactive: dose: 50.0 mg/kg/injection, schedule: Q04DX003 (ip), vehicle: suspension in saline 99 % of control | dose: 100.0 mg/kg/injection, schedule: Q04DX003 (ip), vehicle: suspension in saline 110 % of control | dose: 200.0 mg/kg/injection, schedule: Q04DX003 (ip), vehicle: suspension in saline 105 % of control

N#CC(Nc1ncccn1)c1ccccc1 (centres undefined)
inactive: [13] 97 % of control | [14] 94 % of control | [15] 91 % of control

Nc1nc(N)c2c(n1)CCCC2
inactive: dose: 6.25 mg/kg/injection, schedule: Q04DX003 (ip), vehicle: saline with Tween-80 105 % of control | dose: 12.5 mg/kg/injection, schedule: Q04DX003 (ip), vehicle: saline with Tween-80 100 % of control | dose: 25.0 mg/kg/injection, schedule: Q04DX003 (ip), vehicle: saline with Tween-80 100 % of control

Cc1ccnc(N=Cc2ccccc2O)c1
inactive: [12] 104 % of control | dose: 100.0 mg/kg/injection, schedule: Q01DX009 (ip), vehicle: Klucel (hydroxypropylcellulose) (HPC) 100 % of control | dose: 200.0 mg/kg/injection, schedule: Q01DX009 (ip), vehicle: Klucel (hydroxypropylcellulose) (HPC) 100 % of control

CN1NC(C)(c2cccnc2)SC1=S (centres undefined)
inactive: [9] 95 % of control | [10] 100 % of control | [11] 97 % of control

CN1CC2(CO)C(c3ccccn3)N(C)C(c3ccccn3)C(CO)(C1)C2O (centres undefined)
inactive: [13] 107 % of control | [14] 104 % of control

O=C(Nc1ccccc1)c1cc2ccccc2oc1=O
inactive: dose: 30.0 mg/kg/injection, schedule: Q01DX005 (ip), vehicle: saline with Tween-80 99 % of control | [13] 95 % of control | [14] 94 % of control | [15] 100 % of control

Source: PubChem BioAssay AID330 (DTP/NCI, 2004)
